Source: publication PMC9078972 (RSC Advances, 2018)
Converted amounts (≈) assume the structure as drawn.

System: Mycobacterium tuberculosis H37Ra
Experiment: microbe, parasite or virus in culture
Assay type: cell-based

`CCCCN1CCN(c2nc(=O)c3cc(C(F)(F)F)cc([N+](=O)[O-])c3s2)CC1=O` [Compound 1d, 2-(4-Butyl-3-oxopiperazin-1-yl)-8-nitro-6-(trifluoromethyl)-4H-benzo[e][1,3]-thiazin-4-one] gave an MIC of 0.034 µM (≈ 0.0146 µg/mL).
